Reference: patent US12435090B2, “Compounds, pharmaceutical compositions, and methods of preparing compounds and of their use” (Repare Therapeutics Inc., priority 2021, dated 2025)

Target: recombinant human Myt1 (Homo sapiens (Human), UniProt Q99640)
Test: Myt1 enzymatic assay (ADP-Glo kinase assay)
Format: biochemical
Conditions: 18 nM enzyme, 10 uM ATP
Method: Detection of Myt1 kinase activity utilized a recombinant human Myt1 kinase assay measuring the hydrolysis of ATP using a commercially available ADP-Glo Assay (ADP-Glo™ Kinase Assay from Promega, 10 000 assays, #V9102). […] After this, 5 μL of compounds (diluted in reaction buffer to 0.5% DMSO) was added to the microplate and the plate was spun briefly and incubated at 22° C. for 15 minutes. Ultra-Pure Adenosine Triphosphate (ATP) solution (ADP-Glo kit from Promega) was diluted in reaction buffer and 5 μL was added to the microplate, spun down briefly and incubated for 60 minutes at 30° C. […] After the 60-minute incubation, 15 µL of ADP-Glo reagent was added and the plate was spun briefly and sealed and incubated in the dark for 40 minutes at 22° C. […] Luminescence was read using the Envision (250 ms integration). The IC50 and the % max inhibition were calculated for each inhibitor compound tested.

Chain of recombinant human Myt1 (Q99640 whole entry): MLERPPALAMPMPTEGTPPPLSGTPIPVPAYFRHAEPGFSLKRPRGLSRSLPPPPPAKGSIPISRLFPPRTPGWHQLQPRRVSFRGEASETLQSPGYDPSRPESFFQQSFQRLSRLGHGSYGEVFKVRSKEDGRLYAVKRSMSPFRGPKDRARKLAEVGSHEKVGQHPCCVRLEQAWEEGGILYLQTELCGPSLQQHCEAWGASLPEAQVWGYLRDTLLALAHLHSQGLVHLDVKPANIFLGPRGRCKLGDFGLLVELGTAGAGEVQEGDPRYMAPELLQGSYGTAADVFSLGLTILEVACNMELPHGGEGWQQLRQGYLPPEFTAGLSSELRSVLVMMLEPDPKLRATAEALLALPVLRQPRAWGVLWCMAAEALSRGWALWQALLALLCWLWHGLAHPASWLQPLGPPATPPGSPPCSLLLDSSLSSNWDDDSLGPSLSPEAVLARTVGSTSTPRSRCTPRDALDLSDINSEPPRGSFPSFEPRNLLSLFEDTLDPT

IC50 [nM] | Compound
50 | NC(=O)c1c(N)n(-c2cccc3[nH]ncc23)c2ncc(Cl)cc12 [Compound 334, 2-amino-5-chloro-1-(1H-indazol-4-yl)pyrrolo[2,3-b]pyridine-3-carboxamide]
40 | Cc1ccc2[nH]ncc2c1-n1c(N)c(C(N)=O)c2cc(Cl)cnc21 [Compound 335]
38 | Cc1cc2c(C(N)=O)c(N)c(-c3c(C)ccc(O)c3C)n2cc1C [Compound 336, 2-amino-3-(3-hydroxy-2,6-dimethylphenyl)-6,7-dimethylindolizine-1-carboxamide]
< 10 | Cc1cn2c(C(N)=O)c(N)c(-c3c(C)ccc(O)c3C)c2nc1C [Compound 337, 7-amino-8-(3-hydroxy-2,6-dimethylphenyl)-2,3-dimethylpyrrolo[1,2-a]pyrimidine-6-carboxamide]
108 | Cc1cc2c(-c3c(C)ccc(O)c3C)c(N)c(C(N)=O)n2cc1C [Compound 338, 2-amino-1-(3-hydroxy-2,6-dimethylphenyl)-6,7-dimethylindolizine-3-carboxamide]
323 | Cc1ccc(O)cc1-c1cn(C(N)=O)c2cc(Cl)cnc12 [Compound 345, 6-chloro-3-(5-hydroxy-2-methyl-phenyl) pyrrolo[3,2-b]pyridine-1-carboxamide]
234 | Cc1ccc(O)c(C)c1-n1cc(C(N)=O)c2cc(Cl)ccc21 [Compound 346, 5-chloro-1-(3-hydroxy-2,6-dimethylphenyl)-1H-indole-3-carboxamide]
